Data reported in patent publication US10752609B2, “GSK-3 inhibitors” (priority 2016, dated 2020).
Read-outs that look alike come from different tables or passages of the source.

Columns and labels:
GSK3β = GSK3β (Homo sapiens, UniProt P49841); experiment: GSK3β kinase assay (Caliper LabChip3000 mobility shift, fluoresceinated peptide substrate); assay type: biochemical
GSK3α = GSK3α (Homo sapiens, UniProt P49840); experiment: GSK3α kinase assay (Caliper LabChip3000 mobility shift, fluoresceinated peptide substrate)
pTau = pTau assay (no method described); assay type: cell-based
[1] = 250 pM enzyme, 20 uM ATP, 1.5 uM peptide, 20 hours room temperature, first value of cell GSK3β/GSK3α, read-out: GSK3β (nM), IC50

Chain of GSK3α (P49840 whole entry, species assumed): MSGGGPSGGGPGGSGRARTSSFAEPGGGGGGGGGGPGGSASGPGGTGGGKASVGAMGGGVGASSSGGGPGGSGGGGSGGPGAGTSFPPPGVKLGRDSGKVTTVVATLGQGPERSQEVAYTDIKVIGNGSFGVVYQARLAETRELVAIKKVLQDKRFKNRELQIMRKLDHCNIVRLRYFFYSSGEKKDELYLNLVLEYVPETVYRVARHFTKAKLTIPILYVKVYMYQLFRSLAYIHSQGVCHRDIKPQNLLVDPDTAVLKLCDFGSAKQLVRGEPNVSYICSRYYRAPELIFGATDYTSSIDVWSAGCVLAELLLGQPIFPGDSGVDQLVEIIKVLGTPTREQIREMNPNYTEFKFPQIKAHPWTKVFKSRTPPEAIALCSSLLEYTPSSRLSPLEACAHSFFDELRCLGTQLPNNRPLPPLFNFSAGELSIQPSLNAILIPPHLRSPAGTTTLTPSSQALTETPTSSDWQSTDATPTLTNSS
Chain of GSK3β (P49841 whole entry, species assumed): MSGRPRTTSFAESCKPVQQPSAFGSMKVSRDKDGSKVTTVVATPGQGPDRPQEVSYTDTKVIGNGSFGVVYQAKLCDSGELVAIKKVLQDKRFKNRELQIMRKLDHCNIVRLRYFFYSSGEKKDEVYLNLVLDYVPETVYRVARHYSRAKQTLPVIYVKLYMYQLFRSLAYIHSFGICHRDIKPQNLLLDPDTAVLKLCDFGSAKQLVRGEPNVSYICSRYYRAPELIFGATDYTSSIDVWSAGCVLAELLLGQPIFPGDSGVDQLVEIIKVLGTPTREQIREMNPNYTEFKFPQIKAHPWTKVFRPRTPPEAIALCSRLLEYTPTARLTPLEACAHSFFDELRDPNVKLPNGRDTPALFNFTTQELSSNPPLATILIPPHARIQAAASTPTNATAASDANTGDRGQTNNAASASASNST

SMILES | IC50 (GSK3β; [1]) | IC50 (GSK3α) | IC50 (pTau) | IC50 (GSK3β)
O=C(Nc1cnccc1OCC(F)(F)F)c1ccnc(Nc2cnn(-c3cc(F)ccc3F)c2)n1 [Example 108, 2-((1-(2,5-Difluorophenyl)-1H-pyrazol-4-yl)amino)-N-(4-(2,2,2-trifluoroethoxy)pyridin-3-yl)pyrimidine-4-carboxamide] | 0.24 nM | 0.17 nM | – | –
O=C(Nc1cnccc1-c1ccccc1)c1ccnc(Nc2cnn(-c3cc(F)ccc3F)c2)n1 [Example 159, 2-((1-(2,5-Difluorophenyl)-1H-pyrazol-4-yl)amino)-N-(4-phenylpyridin-3-yl)pyrimidine-4-carboxamide] | 7.2 nM | 1.9 nM | 390 nM | –
CN1CCC(Nc2nccc(C(=O)Nc3cnccc3OCC(F)(F)F)n2)CC1 [Example 142, 2-((1-Methylpiperidin-4-yl)amino)-N-(4-(2,2,2-trifluoroethoxy)pyridin-3-yl)pyrimidine-4-carboxamide] | – | 12 nM | 1000 nM | 14 nM
O=C(Nc1cncnc1OCC(F)(F)F)c1ccnc(NCC2CCOCC2)n1 [Example 190, 2-(((Tetrahydro-2H-pyran-4-yl)methyl)amino)-N-(4-(2,2,2-trifluoroethoxy)pyrimidin-5-yl)pyrimidine-4-carboxamide] | – | 2.6 nM | 190 nM | 3.1 nM
O=C(Nc1cncnc1)c1ccnc(NCC2CC2c2cccc(F)c2)n1 (stereo not shown) [Example 200, 2-(((2-(3-Fluorophenyl)cyclopropyl)methyl)amino)-N-(pyrimidin-5-yl)pyrimidine-4-carboxamide] | 53 nM | 59 nM | 6400 nM | –
N#Cc1ccc(Nc2nccc(C(=O)Nc3cnccc3-c3ccccc3)n2)c(F)c1 [Example 22, 2-((4-Cyano-2-fluorophenyl)amino)-N-(4-phenylpyridin-3-yl)pyrimidine-4-carboxamide] | 0.31 nM | 0.21 nM | – | –
O=C(Nc1cnccc1OCC(F)(F)F)c1ccnc(Nc2ccc(OC(F)F)cc2)n1 [Example 60, 2-((4-(Difluoromethoxy)phenyl)amino)-N-(4-(2,2,2-trifluoroethoxy)pyridin-3-yl)pyrimidine-4-carboxamide] | – | – | 5.5 nM | –
O=C(Nc1cnccc1OCC(F)(F)F)c1ccnc(NC2CCCCC2)n1 [Example 117, 2-(Cyclohexylamino)-N-(4-(2,2,2-trifluoroethoxy)pyridin-3-yl)pyrimidine-4-carboxamide] | 0.25 nM | 0.21 nM | 28 nM | –
O=C(Nc1cnccc1-c1ccccc1)c1ccnc(Nc2cnns2)n1 [Example 101, 2-((1,2,3-Thiadiazol-5-yl)amino)-N-(4-phenylpyridin-3-yl)pyrimidine-4-carboxamide] | 100 nM | 42 nM | 9000 nM | –
CCCC1(c2cc(Cl)ncc2NC(=O)c2ccnc(NC3CCOCC3)n2)OCCO1 [Example 167, N-(6-Chloro-4-(2-propyl-1,3-dioxolan-2-yl)pyridin-3-yl)-2-((tetrahydro-2H-pyran-4-yl)amino)pyrimidine-4-carboxamide] | 0.43 nM | 0.47 nM | 69 nM | –
O=C(Nc1cnccc1OCC(F)(F)F)c1ccnc(Nc2ccc(Cl)cc2F)n1 [Example 61, 2-((4-Chloro-2-fluorophenyl)amino)-N-(4-(2,2,2-trifluoroethoxy)pyridin-3-yl)pyrimidine-4-carboxamide] | 0.72 nM | 0.39 nM | 230 nM | –
O=C(Nc1cnccc1-c1ccc(F)cc1)c1ccnc(Nc2ccc(OC(F)F)nc2)n1 [Example 50, 2-((6-(Difluoromethoxy)pyridin-3-yl)amino)-N-(4-(4-fluorophenyl)pyridin-3-yl)pyrimidine-4-carboxamide] | 4 nM | 1.5 nM | 180 nM | –
O=C(Nc1cnc(F)cc1N1CCC(F)(F)CC1)c1ccnc(Nc2ccc(F)cc2)n1 [Example 180, N-(4-(4,4-Difluoropiperidin-1-yl)-6-fluoropyridin-3-yl)-2-((4-fluorophenyl)amino)pyrimidine-4-carboxamide] | 0.9 nM | 0.39 nM | 68 nM | –
CC(C)OCCCNc1nccc(C(=O)Nc2cnccc2-c2ccccc2)n1 [Example 42, 2-((3-Isopropoxypropyl)amino)-N-(4-phenylpyridin-3-yl)pyrimidine-4-carboxamide] | 0.88 nM | 0.59 nM | 93 nM | –
O=C(Nc1cnccc1-c1ccc(F)cc1)c1ccnc(NC2CCCC2)n1 [Example 148, 2-(Cyclopentylamino)-N-(4-(4-fluorophenyl)pyridin-3-yl)pyrimidine-4-carboxamide] | 0.35 nM | 0.3 nM | 51 nM | –
O=C(Nc1cnccc1-c1ccccc1)c1ccnc(Nc2cc(Cl)c(Cl)cc2F)n1 [Example 31, 2-((4,5-Dichloro-2-fluorophenyl)amino)-N-(4-phenylpyridin-3-yl)pyrimidine-4-carboxamide] | 0.89 nM | 0.52 nM | 320 nM | –
N#Cc1ccc(Nc2nccc(C(=O)Nc3cncnc3OCC(F)(F)F)n2)cc1 [Example 66, 2-((4-Cyanophenyl)amino)-N-(4-(2,2,2-trifluoroethoxy)pyrimidin-5-yl)pyrimidine-4-carboxamide] | 1 nM | 0.67 nM | 22 nM | –

SMILES | IC50 (GSK3β; [1]) | IC50 (GSK3α) | IC50 (pTau) | IC50 (GSK3β)
O=C(Nc1cnccc1-c1ccccc1F)c1ccnc(Nc2ccc3ccccc3c2)n1 [Example 154, N-(4-(2-Fluorophenyl)pyridin-3-yl)-2-(naphthalen-2-ylamino)pyrimidine-4-carboxamide] | 1.4 nM | 0.7 nM | 100 nM | –
O=C(Nc1cnccc1-c1ccccc1)c1ccnc(Nc2ccc(OC(F)F)cc2Cl)n1 [Example 29, 2-((2-Chloro-4-(difluoromethoxy)phenyl)amino)-N-(4-phenylpyridin-3-yl)pyrimidine-4-carboxamide] | 4.6 nM | 2.6 nM | 1400 nM | –
O=C(Nc1cncnc1OCC(F)(F)F)c1ccnc(Nc2ccccc2)n1 [Example 76, 2-(Phenylamino)-N-(4-(2,2,2-trifluoroethoxy)pyrimidin-5-yl)pyrimidine-4-carboxamide] | 1.1 nM | 0.56 nM | 77 nM | –
CN(C)CCOc1ccc(Nc2nccc(C(=O)Nc3cnccc3-c3ccccc3)n2)cn1 [Example 96, 2-((6-(2-(Dimethylamino)ethoxy)pyridin-3-yl)amino)-N-(4-phenylpyridin-3-yl)pyrimidine-4-carboxamide] | 18 nM | 11 nM | 900 nM | –
O=C(Nc1cncnc1OCC(F)(F)F)c1ccnc(Nc2ccc(OC(F)F)cc2)n1 [Example 70, 2-((4-(Difluoromethoxy)phenyl)amino)-N-(4-(2,2,2-trifluoroethoxy)pyrimidin-5-yl)pyrimidine-4-carboxamide] | – | – | 52 nM | –
O=C(Nc1cnccc1-c1ccc(F)cc1)c1ccnc(Nc2ccccn2)n1 [Example 161, N-(4-(4-Fluorophenyl)pyridin-3-yl)-2-(pyridin-2-ylamino)pyrimidine-4-carboxamide] | 22 nM | 20 nM | – | –
O=C(Nc1cnccc1OCC(F)(F)F)c1ccnc(Nc2cccc3ccccc23)n1 [Example 112, 2-(Naphthalen-1-ylamino)-N-(4-(2,2,2-trifluoroethoxy)pyridin-3-yl)pyrimidine-4-carboxamide] | 3.6 nM | 2.1 nM | – | –
O=C(Nc1cnc(F)cc1N1CCC(F)(F)CC1)c1ccnc(Nc2ccc(C(F)(F)F)cc2)n1 [Example 183, N-(4-(4,4-Difluoropiperidin-1-yl)-6-fluoropyridin-3-yl)-2-((4-(trifluoromethyl)phenyl)amino)pyrimidine-4-carboxamide] | 2.9 nM | 3.1 nM | – | –
O=C(Nc1cncnc1)c1ccnc(Nc2cccc(-c3ccccc3)n2)n1 [Example 195, 2-((6-Phenylpyridin-2-yl)amino)-N-(pyrimidin-5-yl)pyrimidine-4-carboxamide] | 8.9 nM | 7.2 nM | – | –
O=C(Nc1cnccc1OCC(F)(F)F)c1ccnc(NC2CCC2)n1 [Example 119, 2-(Cyclobutylamino)-N-(4-(2,2,2-trifluoroethoxy)pyridin-3-yl)pyrimidine-4-carboxamide] | 0.34 nM | – | 20 nM | –
CC(Nc1nccc(C(=O)Nc2cnccc2OCC(F)(F)F)n1)c1cc(F)cc(F)c1 (stereo not shown) [Example 146, 2-((1-(3,5-Difluorophenyl)ethyl)amino)-N-(4-(2,2,2-trifluoroethoxy)pyridin-3-yl)pyrimidine-4-carboxamide] | – | – | 320 nM | –
CC(C)(C)C1CCC(Nc2nccc(C(=O)Nc3cnccc3-c3ccccc3F)n2)CC1 (stereo not shown) [Example 160, 2-((4-(tert-Butyl)cyclohexyl)amino)-N-(4-(2-fluorophenyl)pyridin-3-yl)pyrimidine-4-carboxamide] | 15 nM | – | 4900 nM | –
O=C(Nc1cnc(F)cc1OCC(F)(F)F)c1ccnc(NC2CCC2)n1 [Example 127, 2-(Cyclobutylamino)-N-(6-fluoro-4-(2,2,2-trifluoroethoxy)pyridin-3-yl)pyrimidine-4-carboxamide] | 1.2 nM | – | 140 nM | –
O=C(Nc1cnccc1OCC(F)(F)F)c1ccnc(Nc2ccc3ccccc3c2)n1 [Example 115, 2-(Naphthalen-2-ylamino)-N-(4-(2,2,2-trifluoroethoxy)pyridin-3-yl)pyrimidine-4-carboxamide] | – | – | 23 nM | –
CC(C)Nc1nccc(C(=O)Nc2cnc(F)cc2OCC(F)(F)F)n1 [Example 136, N-(6-Fluoro-4-(2,2,2-trifluoroethoxy)pyridin-3-yl)-2-(isopropylamino)pyrimidine-4-carboxamide] | 3.7 nM | – | 320 nM | –
CC(C)Nc1nccc(C(=O)Nc2cnccc2-c2ccc(F)cc2)n1 [Example 152, N-(4-(4-Fluorophenyl)pyridin-3-yl)-2-(isopropylamino)pyrimidine-4-carboxamide] | 0.71 nM | – | 62 nM | –
Cc1ccc(NC(=O)c2ccnc(N)n2)cn1 [Example 1, 2-Amino-N-(6-methylpyridin-3-yl)pyrimidine-4-carboxamide] | 57 nM | – | 10000 nM | –
